In PubChem BioAssay (NCI) one finds TGI and GI50 data, which are given here for 15 compounds.

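Assay format: 96-well plates, 48-hour exposure. GI50: concentration for 50% inhibition of growth. At the TGI there is no net growth.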

Some test systems named below: 786-0 renal; RPMI-8226 leukemia; DLD-1 colon; HS 578T breast; T-47D breast; MCF7 breast; NCI-H23 lung; DU-145 prostate; SR leukemia; MDA-MB-435; RXF 393 renal; SNB-78 CNS.
Test in all cases: DTP human tumour cell line panel, 48 h

With `Nc1nncs1`, the TGI (in general, the concentration giving total growth inhibition) in the experiment on 786-0 renal was above 5000 µM; in the experiment on RPMI-8226 leukemia, above 5000 µM; in the experiment on DLD-1 colon it was above 5000 µM; with HS 578T breast it was above 5000 µM; in the experiment on T-47D breast it was above 4800 µM; in the experiment with MCF7 breast, above 5000 µM. For the same compound, the TGI in the experiment on NCI-H23 lung was above 4730 µM; in the experiment with DU-145 prostate it was above 5000 µM; in the experiment with SR leukemia it was above 5000 µM; in the experiment on MDA-MB-435, above 5000 µM; with RXF 393 renal, above 5000 µM; in the experiment with SNB-78 CNS, above 4420 µM.
For `O=C(O)C(Br)Cc1ccc2c(c1)OCO2` (stereo unspecified), the TGI in the experiment on RPMI-8226 leukemia, in the experiment on DLD-1 colon, in the experiment on NCI-H23 lung, with SR leukemia, in the experiment on RXF 393 renal and in the experiment on SNB-78 CNS was above 100 µM each time.
`COc1cc2c3c(n(C4CCNCC4)c(=O)c2cc1OC)-c1cc2c(cc1C3=O)OCO2`: the GI50 (as a rule, the concentration that inhibits growth by half) in the experiment on RPMI-8226 leukemia was 773 nM; with T-47D breast, 0.395 µM; in the experiment with NCI-H23 lung, 538 nM; in the experiment with DU-145 prostate, 423 nM; with MDA-MB-435, 1190 nM. In addition, the TGI was 3.68 µM with RPMI-8226 leukemia; 2.38 µM in the experiment with T-47D breast; 2.39 µM with NCI-H23 lung; 1.55 µM in the experiment with DU-145 prostate; 2.6 µM in the experiment with MDA-MB-435.
As to `COc1ccc(/C=C/[N+](=O)[O-])cc1`, the TGI in the experiment with 786-0 renal is above 100 µM; with HS 578T breast, 36.6 µM; in the experiment on MCF7 breast, 5.83 µM; in the experiment with NCI-H23 lung, 59.9 µM; in the experiment with DU-145 prostate, 20.3 µM; with SR leukemia it was 5.48 µM. For the same compound, in the experiment with MDA-MB-435, the TGI turned out to be 4.21 µM.
Turning to `NC(=O)c1cc(C2OC(CO)C(O)C2O)nn1-c1ccc([N+](=O)[O-])cc1` (stereo unspecified), the concentration for total growth inhibition (TGI) with RPMI-8226 leukemia, with DLD-1 colon, in the experiment with NCI-H23 lung, in the experiment on RXF 393 renal and in the experiment on SNB-78 CNS was above 100 µM each time.
As for `CC1(C)N=C(N)N=C(N)N1c1cccc(OCc2cccc([N+](=O)[O-])c2)c1`, the TGI with 786-0 renal was above 100 µM; in the experiment on RPMI-8226 leukemia, above 100 µM; in the experiment with HS 578T breast, above 100 µM; in the experiment on T-47D breast it was above 89.1 µM; in the experiment with MCF7 breast, above 100 µM; with NCI-H23 lung, above 100 µM. Also, the TGI in the experiment with DU-145 prostate, in the experiment on MDA-MB-435 and with RXF 393 renal was above 100 µM throughout.
Regarding `O=C(O)CNCc1c2ccccc2[n+]([O-])c2ccccc12`, the TGI in the experiment with 786-0 renal, with RPMI-8226 leukemia, with DLD-1 colon, with NCI-H23 lung and with SNB-78 CNS was above 100 µM each time.
For the compound `S=C1NN=C2C(=C3CCCC4C5CCCCC5N2C34)N1` (stereo unspecified), the TGI in the experiment with RPMI-8226 leukemia, in the experiment with HS 578T breast, in the experiment on T-47D breast, in the experiment on MCF7 breast, in the experiment on NCI-H23 lung and with DU-145 prostate was above 100 µM in each case. The TGI with SR leukemia is above 100 µM.
On to `O=C1c2ccccc2C(=O)c2c(O)c(O)cc(O)c21`, for which the TGI with 786-0 renal is above 100 µM; with RPMI-8226 leukemia, 70.1 µM; with DLD-1 colon, above 100 µM; in the experiment with NCI-H23 lung it was above 100 µM; in the experiment with RXF 393 renal, 85.4 µM; in the experiment with SNB-78 CNS, above 100 µM.
For `O=C(O)Cc1[nH]cnc1C(=O)O`, the TGI with 786-0 renal, in the experiment on RPMI-8226 leukemia, in the experiment on HS 578T breast, in the experiment with T-47D breast, with MCF7 breast and in the experiment with NCI-H23 lung was above 100 µM in each case. Further, the TGI in the experiment with DU-145 prostate, with MDA-MB-435 and with RXF 393 renal was above 100 µM in each case.
For `COC1/C=C\OC2(C)Oc3c(C)c(O)c4c(O)c(c(CN(C)C)c(O)c4c3C2=O)NC(=O)/C(C)=C\C=C/C(C)C(O)C(C)C(O)C(C)C(OC(C)=O)C1C` (stereo unspecified), the TGI with 786-0 renal is above 100 µM; with RPMI-8226 leukemia, 40 µM; in the experiment with HS 578T breast, above 100 µM; in the experiment on T-47D breast it was above 100 µM; in the experiment with MCF7 breast, 34.8 µM; in the experiment on NCI-H23 lung it was 31.3 µM. In addition, the TGI in the experiment with DU-145 prostate is above 100 µM; with SR leukemia it was 43.1 µM; with MDA-MB-435 it was 78.6 µM; in the experiment on RXF 393 renal, above 100 µM.
Take `COc1ccc(/C(Cl)=C(\C=O)c2ccc(Cl)c(Cl)c2)cc1OC`: the TGI was found to be 5.5 µM with RPMI-8226 leukemia, 20.3 µM with DLD-1 colon and 31.2 µM with SNB-78 CNS.
In the case of `CCCCCCCCCCCCCCCCOCCCOP(=O)(O)C1CCCN(O)C1=O` (stereo unspecified), the GI50 is 936 nM in the experiment with RPMI-8226 leukemia; 14.1 µM with HS 578T breast; 6.15 µM in the experiment with T-47D breast; 3.39 µM in the experiment with MCF7 breast; 4190 nM in the experiment on NCI-H23 lung; 2530 nM in the experiment on DU-145 prostate. In addition, the GI50 is 3130 nM with MDA-MB-435 and 1900 nM in the experiment with RXF 393 renal. Moreover, the TGI with RPMI-8226 leukemia was 29.4 µM; with HS 578T breast it was 66.7 µM; with T-47D breast, 27.5 µM; in the experiment on MCF7 breast, 20 µM; in the experiment on NCI-H23 lung, 20.5 µM; in the experiment on DU-145 prostate, above 100 µM. Also, the concentration for total growth inhibition (TGI) in the experiment with MDA-MB-435 is above 100 µM; with RXF 393 renal, 12.2 µM.
As for `COC(=O)c1nc2c3c(cccc3c1C(=O)OC)Nc1ccccc1-2`, the TGI in the experiment on 786-0 renal, in the experiment with RPMI-8226 leukemia, in the experiment on HS 578T breast, with MCF7 breast, in the experiment with NCI-H23 lung and in the experiment with DU-145 prostate was above 100 µM throughout. Also, the TGI with SR leukemia, in the experiment with MDA-MB-435 and in the experiment with RXF 393 renal was above 100 µM in each case.
Consider `COc1cc2c3c(c4cc(OC)c(OC)cc4c2cc1OC)[C@H](O)[C@@H]1CCCN1C3`, for which the TGI in the experiment with RPMI-8226 leukemia is 0.44 µM; with T-47D breast it was 2.53 µM; in the experiment with NCI-H23 lung it was 1.93 µM; with DU-145 prostate, 1.45 µM; in the experiment with SR leukemia it was 2.67 µM; in the experiment with MDA-MB-435, 2.86 µM. The concentration for total growth inhibition (TGI) in the experiment on RXF 393 renal turned out to be 1.28 µM.
